The results in this text go back to patent publication US10865238B1, “Complement factor H antibodies” (Duke University, priority 2017, dated 2020).

The test system of experiment [1] is H460 cells. The experiment can be described thus: Calreticulin translocation to plasma membrane, H460. Type of experiment: cell-based, human. To be noted: H460, NHS, compared to negative controls. How it is done:
(§1) H460 or A549 cells were treated for 2.5 hr with 1, medium; 2, NHS and CFH mAb (200 μg/ml); 3, NHS and IgG (200 μg/ml); or 4, NHS and Doxorubicin (25 μM).
(§2) In order to see if lung tumor cells undergoing CFH mAb-induced CDC send an ICD signal, human lung tumor cell lines (H460 and A549) were incubated in medium containing complement from the addition of NHS, and treated with CFH mAb, control antibody, or the known ICD inducer doxorubicin (Kepp et al. Oncoimmunology 2014; 3:e955691; Krysko et al. Nat Rev Cancer 2012; 12:860-75.). […] Total calreticulin in whole cell lysates was the same under all conditions.

For experiment [2], the system named is A549 cells. The experiment can be described thus: Calreticulin translocation to plasma membrane, A549. Type of experiment: cell-based, human. To be noted: A549, NHS, compared to negative controls. How it is done:
as §1, §2

Experiment [3] deals with T1, reduced Complement Factor H (CFH) (human, UniProt P08603 19-1231, disulfide bonds reduced with TCEP).
T1 construct: also called reduced CFH; CFH treated with TCEP
T1 sequence (P08603 19-1231 limits assumed): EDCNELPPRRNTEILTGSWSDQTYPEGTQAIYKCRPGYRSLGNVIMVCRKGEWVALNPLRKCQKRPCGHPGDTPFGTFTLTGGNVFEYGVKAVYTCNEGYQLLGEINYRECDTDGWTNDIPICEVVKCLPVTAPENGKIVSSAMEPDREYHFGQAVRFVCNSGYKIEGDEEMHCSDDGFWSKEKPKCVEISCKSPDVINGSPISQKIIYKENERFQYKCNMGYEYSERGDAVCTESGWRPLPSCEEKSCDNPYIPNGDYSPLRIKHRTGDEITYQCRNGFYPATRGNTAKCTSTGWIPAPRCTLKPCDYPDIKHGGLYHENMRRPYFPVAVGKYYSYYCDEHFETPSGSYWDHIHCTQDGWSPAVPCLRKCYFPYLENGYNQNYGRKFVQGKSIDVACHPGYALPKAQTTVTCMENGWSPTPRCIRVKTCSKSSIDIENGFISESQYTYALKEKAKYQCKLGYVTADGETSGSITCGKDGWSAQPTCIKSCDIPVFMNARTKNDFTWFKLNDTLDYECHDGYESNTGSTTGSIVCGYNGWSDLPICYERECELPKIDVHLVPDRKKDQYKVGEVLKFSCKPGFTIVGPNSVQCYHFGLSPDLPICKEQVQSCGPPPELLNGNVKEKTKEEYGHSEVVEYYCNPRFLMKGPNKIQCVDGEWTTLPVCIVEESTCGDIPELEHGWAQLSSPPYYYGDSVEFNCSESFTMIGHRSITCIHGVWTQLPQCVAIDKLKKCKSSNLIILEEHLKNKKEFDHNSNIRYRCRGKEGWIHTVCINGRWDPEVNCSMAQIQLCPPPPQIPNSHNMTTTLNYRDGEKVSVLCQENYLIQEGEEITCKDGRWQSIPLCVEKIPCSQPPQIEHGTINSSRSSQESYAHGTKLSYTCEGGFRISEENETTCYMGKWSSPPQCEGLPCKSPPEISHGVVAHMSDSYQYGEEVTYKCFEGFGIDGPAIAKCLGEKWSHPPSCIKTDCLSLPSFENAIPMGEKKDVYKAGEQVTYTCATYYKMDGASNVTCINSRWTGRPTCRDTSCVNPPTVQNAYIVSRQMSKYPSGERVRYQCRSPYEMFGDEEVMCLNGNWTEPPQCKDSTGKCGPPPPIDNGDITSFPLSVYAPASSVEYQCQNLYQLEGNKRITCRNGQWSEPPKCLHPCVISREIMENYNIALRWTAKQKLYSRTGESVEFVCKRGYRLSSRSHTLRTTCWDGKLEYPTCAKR
The experiment can be described thus: western blot (immunoblot) on native and TCEP-reduced CFH.
Method: Equimolar amounts of CFH and SCR19-20 proteins (~150 kDa and ~15 kDa, respectively) were treated with Tris-HCl (oxidized) or TCEP (reduced) prior to electrophoresis. The proteins were transferred to PVDF, and the membranes were placed into a "Surf-Blot" apparatus for immunoblot analysis. […] Binding was visualized with an antihuman IgG-HRP conjugate and chemiluminescent substrate, exposing the entire blot to one piece of film.

For the molecule `COc1cccc2c1C(=O)c1c(O)c3c(c(O)c1C2=O)C[C@@](O)(C(=O)CO)C[C@@H]3O[C@H]1C[C@H](N)[C@H](O)[C@H](C)O1` [doxorubicin, reference compound], the plasma membrane calreticulin result in experiment [1] and in experiment [2] was “increases in plasma membrane calreticulin” in each case.

B1: Ab7955 (antibody, V domains shown)
VH: LVESGGGVVRPGRSLRLSCVASGFTFNAYGMHWVRQGPGKGLEWLAVISYEGKTVYYADSVKDRFTISRDNSRNTVSLHLNNLRGEDTAVYYCAKGSASAAVLQHWGQGTLVSVTS
VL: MTQSPGSLAVSLGSRATINCKSSRSLLYRSNNKNYLAWYQQKPGQSPRLLIYWASSRESGVPDRFSGGGSGTSFTLTISSLQAEDVAVYYCQQYFNPPWTFGQGTKVEIK
notes: Recombinant human mAb; also called CFH mAb 7955
On to B1, for which the binding result in experiment [3] is “binds”.
